Reference: patent US12186310B2, “Antibody-drug conjugate” (DAIICHI SANKYO COMPANY, LIMITED, priority 2012, dated 2025)
Where two headings read alike, the source gives them in different places.

How the values were obtained:
[1] = test system: A375 cells; assay: Cytotoxicity test (8) of released drug; type: cell-based; conditions: Homo sapiens, A-375, 144 h, read-out: IC50, cytotoxic activity against the A375 cells
Description: A375 cells (ATCC) were cultured in DMEM (GIBCO) containing 10% fetal bovine serum (MOREGATE) (hereinafter, referred to as a medium). The A375 cells were prepared to have a concentration of 4×10^4 cells/mL by using a medium, added at a concentration of 25 μL/well to a 96-well microplate for cell culture (CORNING) charged with […] of a medium, and cultured overnight. On the next day, each test substance diluted into 1000 nM, 200 nM, 40 nM, 8 nM, 1.6 nM, 0.32 nM, and 0.064 nM by using DMSO was added at a concentration of 0.5 μL/well to the microplate. DMSO was added at a concentration of 0.5 μL/well to test substance non-supplemented wells. The volume of the medium in each well was adjusted to 100 μL by the addition of 10 μL/well of a medium, and the cells were cultured under 5% CO2 at 37° C. for 6 days. After the culture, the microplate was taken out from the incubator and left standing at room temperature for 30 minutes. The culture solution was charged with an equal amount of CellTiter-Glo Luminescent Cell Viability Assay (Promega) and stirred. After the microplate was left standing at room temperature for 10 minutes, the amount of light emission was measured by using a plate reader. The IC50 value was calculated according to the following equation: IC50(nM)=antilog((50−d)×(LOG10b−LOG10a)/(d−c)+LOG10b) • a: Concentration a of the test substance • b: Concentration b of the test substance • c: Ratio of live cells supplemented with the test substance having the concentration a • d: Ratio of live cells supplemented with the test substance having the concentration b
The concentrations a and b establish the relation a>b crossing 50% ratio of live cells.
The survival rate of cells was calculated according to the following equation: Survival rate of cells (%)=a/b×100 • a: Average amount of light emission from the test substance-supplemented wells (n=2) • b: Average amount of light emission from the test substance non-supplemented wells (n=10)

[2] = Self-degradation of released drug derivative with aminal structure; type: physicochemical; conditions: undergoes a self-degradation to release HO—CH2—C(═O)—(NH-DX)
[3] = test system: various cancer cells; conditions: against various cancer cells; cited from earlier work
[4] = test system: human tumor; conditions: human tumor subcutaneously transplanted mouse model; cited from earlier work
[5] = target: T1, topoisomerase I (Homo sapiens, UniProt P11387); conditions: compared with SN-38 and topotecan; cited from earlier work
T1 sequence (P11387 1-765): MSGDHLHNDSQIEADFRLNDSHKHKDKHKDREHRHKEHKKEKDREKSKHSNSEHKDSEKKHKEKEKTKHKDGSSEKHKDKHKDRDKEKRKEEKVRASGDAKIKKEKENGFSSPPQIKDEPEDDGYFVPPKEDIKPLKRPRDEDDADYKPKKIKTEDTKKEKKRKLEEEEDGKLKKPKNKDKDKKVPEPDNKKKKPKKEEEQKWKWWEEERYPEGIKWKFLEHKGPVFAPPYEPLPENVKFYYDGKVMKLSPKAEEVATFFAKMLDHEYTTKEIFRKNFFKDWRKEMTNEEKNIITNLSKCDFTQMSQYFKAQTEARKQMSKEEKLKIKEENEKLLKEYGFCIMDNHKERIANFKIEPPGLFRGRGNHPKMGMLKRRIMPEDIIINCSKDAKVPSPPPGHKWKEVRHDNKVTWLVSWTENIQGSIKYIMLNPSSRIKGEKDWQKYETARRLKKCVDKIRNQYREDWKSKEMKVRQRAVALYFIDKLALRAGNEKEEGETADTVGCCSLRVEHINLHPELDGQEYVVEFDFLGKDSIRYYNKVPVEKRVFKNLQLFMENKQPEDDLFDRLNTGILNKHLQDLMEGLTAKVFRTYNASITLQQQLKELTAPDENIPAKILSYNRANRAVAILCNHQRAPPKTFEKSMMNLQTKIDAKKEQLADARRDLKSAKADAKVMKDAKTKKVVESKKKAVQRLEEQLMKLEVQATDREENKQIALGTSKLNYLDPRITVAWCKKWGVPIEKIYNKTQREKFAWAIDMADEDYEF

[6] = test system: Human melanoma line A375 cells; assay: Antitumor test (1), subcutaneously transplanted A375; type: in vivo, mouse; conditions: A375 subcutaneous, female nude mice; 10 mg/kg intravenously at Days 11, 18, and 25; FIG. 17
Description: Mouse: 5- to 6-week-old female BALB/c nude mice (Charles River Laboratories Japan, Inc.) were acclimatized for 4 to 7 days under SPF conditions before use in the experiment. The mice were fed with sterilized solid feed (FR-2, Funabashi Farms Co., Ltd) and given sterilized tap water (prepared by the addition of 5 to 15 ppm sodium hypochlorite solution). Assay and calculation expression: In all studies, the major axis and minor axis of tumor were measured twice a week by using an electronic digital caliper (CD-15C, Mitutoyo Corp.), and the tumor volume (mm^3) was calculated. The calculation expression is as shown below. Tumor volume (mm^3)=1⁄2×Major axis (mm)×[Minor axis (mm)]^2 All of the antibody-drug conjugates were diluted with physiological saline (Otsuka Pharmaceutical Factory, Inc.) and used at a volume of 10 mL/kg for intravenous administration to the tail of each mouse. Human melanoma line A375 cells were purchased from ATCC (American Type Culture Collection). 8×10^6 cells suspended in physiological saline were subcutaneously transplanted to the right abdomen of each female nude mouse (Day 0), and the mice were randomly grouped at Day 11.

[7] = test system: Human non-small cell lung cancer line Calu-6 cells; assay: Antitumor test (3), subcutaneously transplanted Calu-6; type: in vivo, mouse; conditions: Calu-6 subcutaneous, female nude mice; 10 mg/kg intravenously at Days 11, 18, and 25 (qw×3); FIG. 19
Description: Assay and calculation expression: In all studies, the major axis and minor axis of tumor were measured twice a week by using an electronic digital caliper (CD-15C, Mitutoyo Corp.), and the tumor volume (mm^3) was calculated. The calculation expression is as shown below. Tumor volume (mm^3)=½×Major axis (mm)×[Minor axis (mm)]^2
Human non-small cell lung cancer line Calu-6 cells were purchased from ATCC (American Type Culture Collection). 5×10^6 cells suspended in physiological saline were subcutaneously transplanted to the right abdomen of each female nude mouse (Day 0), and the mice were randomly grouped at Day 11.

With `CC[C@@]1(O)C(=O)OCc2c1cc1n(c2=O)Cc2c-1nc1cc(F)c(C)c3c1c2[C@@H](NC(=O)CCCN)CC3` [Example (1), 4-Amino-N-[(1S,9S)-9-ethyl-5-fluoro-9-hydroxy-4-methyl-10,13-dioxo-2,3,9,10,13,15-hexahydro-1H,12H-benzo[de]pyrano[3′,4′:6,7]indolizino[1,2-b]quinolin-1-yl]butanamide] the IC50 [1] was 10 to 100 nM.

With `CCC1(O)C(=O)OCc2c1cc1n(c2=O)Cc2c-1nc1cc(F)c(C)c3c1c2C(NC(=O)COCN)CC3` (stereo not shown) [NH2—CH2—O—CH2—C(═O)—(NH-DX)] the “stability of the aminal structure in the molecule” value [2] was “unstable”.

In the case of `CC[C@@]1(O)C(=O)OCc2c1cc1n(c2=O)Cc2c-1nc1cc(F)c(C)c3c1c2[C@@H](N)CC3` [exatecan, (1S,9S)-1-amino-9-ethyl-5-fluoro-2,3-dihydro-9-hydroxy-4-methyl-1H,12H-benzo[de]pyrano[3′,4′:6,7]indolizino[1,2-b]quinolin-10,13(9H,15H)-dione], the IC50 ([1]; released drug, cultured 6 days, CellTiter-Glo) is given as 0.1 to 1 nM, the “in vitro cytocidal activity” value [3] is given as “higher in vitro cytocidal activity” and the antitumor effect [4] is given as “potent antitumor effect”. The “inhibitory activity on topoisomerase I” value [5] was “higher than SN-38”.

For `CC[C@@]1(O)C(=O)OCc2c1cc1n(c2=O)Cc2c-1nc1cc(F)c(C)c3c1c2[C@@H](NC(=O)COCCN)CC3` [Example (42), 2-(2-Aminoethoxy)-N-[(1S,9S)-9-ethyl-5-fluoro-9-hydroxy-4-methyl-10,13-dioxo-2,3,9,10,13,15-hexahydro-1H,12H-benzo[de]pyrano[3′,4′:6,7]indolizino[1,2-b]quinolin-1-yl]acetamide], the IC50 [1] was 1 to 10 nM.

With `CC[C@@]1(O)C(=O)OCc2c1cc1n(c2=O)Cc2c-1nc1cc(F)c(C)c3c1c2[C@@H](NC(=O)CO)CC3` [Example (75), N-[(1S,9S)-9-ethyl-5-fluoro-9-hydroxy-4-methyl-10,13-dioxo-2,3,9,10,13,15-hexahydro-1H,12H-benzo[de]pyrano[3′,4′:6,7]indolizino[1,2-b]quinolin-1-yl]-2-hydroxyacetamide] the IC50 [1] was 0.1 to 1 nM.

B1: M30-H1-L4P antibody: M30-H1-L4 antibody with the modification of a glycan regulated by defucosylation (antibody, chains of the INN, looked up, V domains shown)
VH: QVQLVQSGAEVKKPGSSVKVSCKASGYTFTNYVMHWVRQAPGQGLEWMGYINPYNDDVKYNEKFKGRVTITADESTSTAYMELSSLRSEDTAVYYCARWGYYGSPLYYFDYWGQGTLVTVSS
VL: EIVLTQSPATLSLSPGERATLSCRASSRLIYMHWYQQKPGQAPRPLIYATSNLASGIPARFSGSGSGTDFTLTISSLEPEDFAVYYCQQWNSNPPTFGQGTKVEIK
modifications: defucosylated
notes: M30-H1-L4 antibody with the modification of a glycan regulated by defucosylation
With B1 the tumor volume [6] was “progression of tumor growth” and the tumor volume [7] was “progression of tumor growth”.
